Reference: US20240383901A1, “SUBSTITUTED PYRROLO[2,3-D]PYRIMIDINES, THEIR PREPARATION AND THEIR THERAPEUTIC APPLICATION” (SANOFI, priority 2021, published 2024)

Target: LRRK2 (Homo sapiens, UniProt Q5S007)
Test: LRRK2 WT assay (Assay B, radiometric 33P-ATP filter binding)
Type: biochemical
Conditions: Assay B (values marked *)
Procedure: LRRK2(human) is incubated with 50 mM HEPES pH 8.0, 0.2 mM EDTA, 0.01% Brij-35, 1% (w/v) BSA, 5 mM DTT, 250 Mm […], 10 mM Magnesium acetate and [[…]]-ATP (specific activity and concentration as required).
The reaction is initiated by the addition of the Mg/ATP mix.

Chain of LRRK2 (Q5S007 whole entry): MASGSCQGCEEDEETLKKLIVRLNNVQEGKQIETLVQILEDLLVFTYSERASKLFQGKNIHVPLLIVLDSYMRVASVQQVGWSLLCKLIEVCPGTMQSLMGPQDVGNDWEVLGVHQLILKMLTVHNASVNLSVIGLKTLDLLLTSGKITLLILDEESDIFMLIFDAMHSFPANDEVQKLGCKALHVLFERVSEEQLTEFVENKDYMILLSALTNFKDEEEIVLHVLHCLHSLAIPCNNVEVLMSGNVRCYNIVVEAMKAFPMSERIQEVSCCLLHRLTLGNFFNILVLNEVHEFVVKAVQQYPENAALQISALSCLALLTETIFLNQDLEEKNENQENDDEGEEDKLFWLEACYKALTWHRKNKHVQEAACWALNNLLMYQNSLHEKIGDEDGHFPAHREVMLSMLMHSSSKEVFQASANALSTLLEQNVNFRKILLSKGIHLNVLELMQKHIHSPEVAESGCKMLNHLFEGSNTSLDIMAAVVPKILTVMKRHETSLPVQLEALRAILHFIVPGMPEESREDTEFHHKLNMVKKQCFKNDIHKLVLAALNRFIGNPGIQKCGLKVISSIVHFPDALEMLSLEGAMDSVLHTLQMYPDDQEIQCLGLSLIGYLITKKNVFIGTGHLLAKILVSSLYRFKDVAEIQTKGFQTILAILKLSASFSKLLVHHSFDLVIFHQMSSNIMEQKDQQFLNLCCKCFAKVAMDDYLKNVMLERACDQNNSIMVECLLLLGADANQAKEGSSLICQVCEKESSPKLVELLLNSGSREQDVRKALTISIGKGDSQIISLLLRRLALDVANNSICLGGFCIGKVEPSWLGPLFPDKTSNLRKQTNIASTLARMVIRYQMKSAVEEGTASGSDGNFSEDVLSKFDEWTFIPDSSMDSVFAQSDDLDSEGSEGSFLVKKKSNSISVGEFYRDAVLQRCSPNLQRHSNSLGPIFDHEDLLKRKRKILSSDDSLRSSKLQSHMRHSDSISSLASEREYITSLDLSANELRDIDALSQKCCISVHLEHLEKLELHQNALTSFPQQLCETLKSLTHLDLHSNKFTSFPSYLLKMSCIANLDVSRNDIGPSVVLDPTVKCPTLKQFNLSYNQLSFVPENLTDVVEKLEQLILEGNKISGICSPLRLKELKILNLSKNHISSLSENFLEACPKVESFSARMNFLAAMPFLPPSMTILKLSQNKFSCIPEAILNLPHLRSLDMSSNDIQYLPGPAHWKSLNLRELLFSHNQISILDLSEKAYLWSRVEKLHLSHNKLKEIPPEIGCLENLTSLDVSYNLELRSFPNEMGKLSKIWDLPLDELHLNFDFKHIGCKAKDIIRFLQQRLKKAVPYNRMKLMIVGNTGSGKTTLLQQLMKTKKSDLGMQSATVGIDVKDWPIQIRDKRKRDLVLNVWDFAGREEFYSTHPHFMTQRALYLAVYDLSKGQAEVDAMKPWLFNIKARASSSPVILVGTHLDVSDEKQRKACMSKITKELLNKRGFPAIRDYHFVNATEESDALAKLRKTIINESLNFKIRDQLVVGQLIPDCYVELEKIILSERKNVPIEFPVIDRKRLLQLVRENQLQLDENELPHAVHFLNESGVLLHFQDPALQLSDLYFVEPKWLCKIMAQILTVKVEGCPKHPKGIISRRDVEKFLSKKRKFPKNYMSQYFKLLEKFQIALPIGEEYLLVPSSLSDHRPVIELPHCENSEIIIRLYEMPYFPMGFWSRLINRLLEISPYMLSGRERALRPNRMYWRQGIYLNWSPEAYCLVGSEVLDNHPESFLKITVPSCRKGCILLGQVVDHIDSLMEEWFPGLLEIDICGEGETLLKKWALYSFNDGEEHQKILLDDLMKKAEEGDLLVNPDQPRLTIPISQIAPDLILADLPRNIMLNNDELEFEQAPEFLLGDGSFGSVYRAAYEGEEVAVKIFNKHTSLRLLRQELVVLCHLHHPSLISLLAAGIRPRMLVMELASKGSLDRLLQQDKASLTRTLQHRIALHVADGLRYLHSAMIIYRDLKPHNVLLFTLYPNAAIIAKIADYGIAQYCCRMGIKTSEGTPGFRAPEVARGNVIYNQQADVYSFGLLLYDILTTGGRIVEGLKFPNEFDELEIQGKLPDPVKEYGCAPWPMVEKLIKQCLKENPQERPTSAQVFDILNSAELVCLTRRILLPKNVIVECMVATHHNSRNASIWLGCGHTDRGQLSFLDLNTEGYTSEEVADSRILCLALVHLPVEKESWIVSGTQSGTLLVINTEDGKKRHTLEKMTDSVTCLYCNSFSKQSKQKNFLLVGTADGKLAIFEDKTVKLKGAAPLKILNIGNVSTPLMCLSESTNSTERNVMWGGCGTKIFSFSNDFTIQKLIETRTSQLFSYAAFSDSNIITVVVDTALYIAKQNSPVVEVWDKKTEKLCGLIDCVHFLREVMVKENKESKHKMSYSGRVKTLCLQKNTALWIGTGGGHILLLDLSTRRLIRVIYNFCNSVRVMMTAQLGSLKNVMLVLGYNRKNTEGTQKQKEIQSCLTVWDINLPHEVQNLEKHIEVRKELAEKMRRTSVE

First: CO[C@H]1COC[C@H]1n1c(C#N)cc2cnc(Nc3cn(C(C)(C)C#N)nc3OC(C)C)nc21 [Example 60, 2-((1-(2-Cyanopropan-2-yl)-3-isopropoxy-1H-pyrazol-4-yl)amino)-7-((3R,4R)-4-methoxytetrahydrofuran-3-yl)-7H-pyrrolo[2,3-d]pyrimidine-6-carbonitrile]
Second: CC[C@@H](C)Oc1nn(C)cc1Nc1ncc2cc(C#N)n([C@@H]3COC[C@@H]3OC)c2n1 [Example 66, 2-((3-((R)-sec-Butoxy)-1-methyl-1H-pyrazol-4-yl)amino)-7-((3R,4R)-4-methoxytetrahydrofuran-3-yl)-7H-pyrrolo[2,3-d]pyrimidine-6-carbonitrile]
The IC50 of the first is 2.8-fold lower: 42 nM for the first, 119 nM for the second. The first is the more potent here.

`CO[C@H]1COC[C@H]1n1c(C#N)cc2cnc(Nc3cn(C(C)C)nc3OC3CC3)nc21` [Example 61, 2-((3-Cyclopropoxy-1-isopropyl-1H-pyrazol-4-yl)amino)-7-((3R,4R)-4-methoxytetrahydrofuran-3-yl)-7H-pyrrolo[2,3-d]pyrimidine-6-carbonitrile] and `CO[C@H]1COC[C@H]1n1c(C#N)cc2cnc(Nc3cn(C4COC4)nc3OC3CC3)nc21` [Example 64, 2-((3-Cyclopropoxy-1-(oxetan-3-yl)-1H-pyrazol-4-yl)amino)-7-((3R,4R)-4-methoxytetrahydrofuran-3-yl)-7H-pyrrolo[2,3-d]pyrimidine-6-carbonitrile] are within 1.5-fold of each other in IC50: 133 nM for the first, 135 nM for the second.

Compared with `Cn1cc(Nc2ncc3cc(C#N)n(C4CCCOC4)c3n2)c(OC2COC2)n1` (single isomer, unassigned) [Example 81, 2-((1-methyl-3-(oxetan-3-yloxy)-1 H-pyrazol-4-yl)amino)-7-(tetrahydro-2H-pyran-3-yl)-7H-pyrrolo[2,3-d]pyrimidine-6-carbonitrile], `[2H]c1c(Nc2ncc3cc(C#N)n([C@H]4COC[C@@H]4C)c3n2)c(OC2COC2C)nn1C` (stereo partly drawn) [Example 97, 2-((1-methyl-3-((2-methyloxetan-3-yl)oxy)-1H-pyrazol-4-yl-5-d)amino)-7-((3R,4R)-4-methyltetrahydrofuran-3-yl)-7H-pyrrolo[2,3-d]pyrimidine-6-carbonitrile] is 15-fold lower in IC50: 183 nM for the first, 12 nM for the second.

Work on `CC(C)Oc1nn(C(C)C#N)cc1Nc1ncc2cc(C#N)n([C@@H]3COC[C@@H]3C)c2n1` (single isomer, unassigned) [Example 51, 2-((1-(1-cyanoethyl)-3-isopropoxy-1 H-pyrazol-4-yl)amino)-7-((cis)-4-methyltetrahydrofuran-3-yl)-7H-pyrrolo[2,3-d]pyrimidine-6-carbonitrile] yielded an IC50 of 5 nM.
Molecule `CC(C)Oc1nn(C(C)C#N)cc1Nc1ncc2cc(C#N)n([C@@H]3COC[C@@H]3C)c2n1` (single isomer, unassigned) [Example 48, 2-((1-(1-cyanoethyl)-3-isopropoxy-1 H-pyrazol-4-yl)amino)-7-((cis)-4-methyltetrahydrofuran-3-yl)-7H-pyrrolo[2,3-d]pyrimidine-6-carbonitrile] has an IC50 of 256 nM.
